BigSolDB 2.1

O=C(O)Cc1ccc([N+](=O)[O-])cc1
solubility (mole fraction)
Conditions | 283.15 K | 288.15 K | 293.15 K | 298.15 K | 303.15 K | 308.15 K | 313.15 K | 318.15 K | 323.15 K | 328.15 K
in DMAc | 0.0895 | 0.1 | 0.114 | 0.131 | 0.149 | 0.169 | 0.191 | 0.216 | 0.24 | 0.271
in DMF | 0.161 | 0.178 | 0.2 | 0.225 | 0.251 | 0.28 | 0.311 | 0.342 | 0.377 | 0.417
in acetonitrile | 0.0193 | 0.0223 | 0.0266 | 0.0312 | 0.0375 | 0.0449 | 0.0535 | 0.0639 | 0.0761 | 0.0918
in cyclohexane | 1.2e-05 | 1.69e-05 | 2.3e-05 | 3.11e-05 | 4.12e-05 | 5.45e-05 | 7.11e-05 | 9e-05 | 0.000113 | 0.00014
in ethanol | 0.0758 | 0.0849 | 0.0979 | 0.111 | 0.128 | 0.148 | 0.17 | 0.196 | 0.223 | 0.254
in ethyl acetate | 0.0309 | 0.0352 | 0.041 | 0.0487 | 0.0576 | 0.0694 | 0.0823 | 0.098 | 0.116 | 0.137
in ethylene glycol | 0.0168 | 0.0185 | 0.0213 | 0.0254 | 0.0301 | 0.0361 | 0.0428 | 0.0503 | 0.0596 | 0.0723
in isobutanol | 0.025 | 0.0282 | 0.0323 | 0.0389 | 0.0464 | 0.0554 | 0.0658 | 0.0776 | 0.0917 | 0.11
in isopropanol | 0.028 | 0.031 | 0.0373 | 0.0455 | 0.0542 | 0.065 | 0.0768 | 0.0914 | 0.109 | 0.131
in methanol | 0.125 | 0.137 | 0.155 | 0.174 | 0.195 | 0.218 | 0.245 | 0.274 | 0.305 | 0.341
in n-butanol | 0.0498 | 0.0564 | 0.0653 | 0.0758 | 0.0877 | 0.101 | 0.117 | 0.135 | 0.156 | 0.178
in n-propanol | 0.0518 | 0.0589 | 0.0683 | 0.0784 | 0.0916 | 0.106 | 0.124 | 0.145 | 0.168 | 0.193
in water | 0.000141 | 0.00017 | 0.000209 | 0.000264 | 0.000336 | 0.000422 | 0.000528 | 0.000663 | 0.000816 | 0.00101
